We go through 22 compounds from patent US9200001B2, “Triazolyl PDE10 inhibitors” (Merck Sharp & Dohme Corp., priority 2011, dated 2015).

The assay concerns the target human PDE10A2 (Homo sapiens (Human), UniProt Q9Y233). Put plainly: PDE10 fluorescence polarization (IMAP FP) inhibition assay. It is filed as biochemical. As to conditions: FAM-labeled cAMP 50 nM, room temperature, read-out: PDE10a Ki. On the procedure:
The activity of the compounds in accordance with the present invention as PDE10 inhibitors may be readily determined without undue experimentation using a fluorescence polarization (FP) methodology that is well known in the art (Huang, W., et al., J. Biomol Screen, 2002, 7: 215).
In a typical experiment the PDE10 inhibitory activity of the compounds of the present invention was determined in accordance with the following experimental method. PDE10A2 was amplified from human fetal brain cDNA (Clontech, Mountain View, Calif.) using a forward primer corresponding to nucleotides 56-77 of human PDE10A2 (Accession No. AF127480, Genbank Identifier 4894716), containing a Kozak consensus sequence, and a reverse primer corresponding to nucleotides 2406-2413 of human PDE10A2 (Accession No. AF127480, Genbank Identifier 4894716). Amplification with Easy-A polymerase (Stratagene, La Jolla, Calif.) was 95° C. for 2 minutes followed by thirty three cycles of 95° C. for 40 seconds, 55° C. for 30 seconds, and 72° C. for 2 minutes 48 seconds. Final extension was 72° C. for 7 minutes. The PCR product was TA cloned into pcDNA3.2-TOPO (Invitrogen, Carlsbad, Calif.) according to standard protocol. AD293 cells with 70-80% confluency were transiently transfected with human PDE10A2/pcDNA3.2-TOPO using Lipofectamine 2000 according to manufacturer specifications (Invitrogen, Carlsbad, Calif.). Cells were harvested 48 hours post-transfection and lysed by sonication (setting 3, 10×5 sec pulses) in a buffer containing 20 mM HEPES, 1 mM EDTA and protease inhibitor cocktail (Roche). Lysate was collected by centrifugation at 75,000×g for 20 minutes. Supernatant containing the cytoplasmic fraction was used for evaluation of PDE10A2 activity. The fluorescence polarization assay for cyclic nucleotide phosphodiesterases was performed using an IMAP® FP kit supplied by Molecular Devices, Sunnyvale, Calif. (product # R8139). IMAP® technology has been applied previously to phosphodiesterase assays (Huang, W., et al., J. Biomol Screen, 2002, 7: 215). Assays were performed at room temperature in 384-well microtiter plates with an incubation volume of 20.2 μL. Solutions of test compounds were prepared in DMSO and serially diluted with DMSO to yield 8 μL of each of 10 solutions differing by 3-fold in concentration, at 32 serial dilutions per plate. 100% inhibition is determined using a known PDE10 inhibitor, which can be any compound that is present at 5,000 times its Ki value in the assay described as follows, such as papaverine (see Siuciak, et al. Neuropharmacology (2006) 51:386-396; Becker, et al. Behav Brain Res (2008) 186(2):155-60; Threlfell, et al., J Pharmacol Exp Ther (2009) 328(3):785-795), 2-{4-[pyridin-4-yl-1-(2,2,2-trifluoroethyl)-1H-pyrazol-3-yl]phenoxymethyl}quinoline succinic acid or 2-[4-(1-methyl-4-pyridin-4-yl-1H-pyrazol-3-yl)-phenoxymethyl]quinoline succinic acid (see Schmidt, et al. J Pharmacol Exp Ther (2008) 325:681-690; Threlfall, et al., J Pharmacol Exp Ther (2009) 328(3): 785-795). 0% of inhibition is determined by using DMSO (1% final concentrations).
A Labcyte Echo 555 (Labcyte, Sunnyvale, Calif.) is used to dispense 200 nL from each well of the titration plate to the 384 well assay plate. A solution of enzyme (1/1600 dilution from aliquots; sufficient to produce 20% substrate conversion) and a separate solution of FAM-labeled cAMP PDE from Molecular Devices (product # R7506), at a final concentration of 50 nM are made in the assay buffer (10 mM Tris HCl, pH 7.2, 10 mM MgCl2, 0.05% NaN3 0.01% Tween-20, and 1 mM DTT). The enzyme and the substrate are then added to the assay plates in two consecutive additions of 10 μL, and then shaken to mix. The reaction is allowed to proceed at room temperature for 30 minutes. A binding solution is then made from the kit components, comprised of 80% Solution A, 20% Solution B and binding reagent at a volume of 1600 the total binding solution. […]
(Polarisation of emitted light reports the rotation of a fluorescent probe.)

Chain of human PDE10A2 (Q9Y233 267-1055): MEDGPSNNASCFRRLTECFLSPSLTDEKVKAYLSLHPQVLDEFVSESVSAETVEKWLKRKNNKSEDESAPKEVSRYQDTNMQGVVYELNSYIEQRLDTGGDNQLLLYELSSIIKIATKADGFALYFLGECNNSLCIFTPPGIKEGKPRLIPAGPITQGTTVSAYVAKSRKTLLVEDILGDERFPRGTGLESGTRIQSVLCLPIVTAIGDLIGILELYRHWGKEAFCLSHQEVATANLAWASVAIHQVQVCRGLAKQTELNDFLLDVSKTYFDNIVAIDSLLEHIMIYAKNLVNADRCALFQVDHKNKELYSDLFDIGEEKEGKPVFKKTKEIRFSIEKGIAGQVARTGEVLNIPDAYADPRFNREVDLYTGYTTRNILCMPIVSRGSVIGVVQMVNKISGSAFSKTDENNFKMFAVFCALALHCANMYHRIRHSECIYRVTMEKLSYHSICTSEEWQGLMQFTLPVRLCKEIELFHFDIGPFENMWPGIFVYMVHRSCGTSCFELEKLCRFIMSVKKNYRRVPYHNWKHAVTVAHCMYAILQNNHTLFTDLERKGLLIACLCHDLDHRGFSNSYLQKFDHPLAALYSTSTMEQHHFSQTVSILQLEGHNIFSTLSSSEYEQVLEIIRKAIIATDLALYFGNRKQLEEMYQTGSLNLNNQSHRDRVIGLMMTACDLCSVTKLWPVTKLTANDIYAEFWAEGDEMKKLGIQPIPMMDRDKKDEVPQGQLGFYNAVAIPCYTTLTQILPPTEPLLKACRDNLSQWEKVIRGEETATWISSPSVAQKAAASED

Consider `Cc1nc(C)n(-c2cc([C@H]3C[C@@H]3c3nc4ccccc4n3C)nc(OCCF)n2)n1` (relative stereo) [Cpd 122, trans-2-{2-[6-(3,5-dimethyl-1H-1,2,4-triazol-1-yl)-2-(2-fluoroethoxy)pyrimidin-4-yl]cyclopropyl}-1-methyl-1H-benzimidazole], for which the inhibitory constant (Ki) – broadly, the dissociation constant of the complex between target and ligand, obtained from inhibition or displacement – was 1.2 nM. As to `COc1ccc(Cc2nc(C)nn2-c2cc(C3CC3c3nnc(C)o3)nc(C)n2)cc1OC` (stereo not shown) [Cpd 27, 2-(2-(6-(5-(3,4-dimethoxybenzyl)-3-methyl-1H-1,2,4-triazol-1-yl)-2-methylpyrimidin-4-yl)cyclopropyl)-5-methyl-1,3,4-oxadiazole], the Ki came out at 88 nM.

As for `Cc1nc([C@@H]2C[C@H]2c2nc3ccccc3n2CC2CCCCO2)cc(-n2nc(C)nc2C)n1` (stereo in doubt) [Cpd 70, 2-{2-[6-(3,5-dimethyl-1H-1,2,4-triazol-1-yl)-2-methylpyrimidin-4-yl]cyclopropyl}-1-(tetrahydro-2H-pyran-2-ylmethyl)-1H-benzimidazole], the Ki was 6 nM. Regarding `Cc1nc(C)n(-c2cc([C@@H]3C[C@H]3c3nc4ccccc4n3C)nc(O)n2)n1` (relative stereo) [Cpd 125, trans-4-(3,5-dimethyl-1H-1,2,4-triazol-1-yl)-6-[2-(1-methyl-1H-benzimidazol-2-yl)cyclopropyl]pyrimidin-2-ol], the Ki amounted to 19 nM. As for `Cc1nc([C@@H]2C[C@H]2c2nc3ccccc3n2C)cc(-n2nc(C)nc2C2CCOCC2)n1` [Cpd 97, 1-methyl-2-[(1R,2R)-2-{2-methyl-6-[3-methyl-5-(tetrahydro-2H-pyran-4-yl)-1H-1,2,4-triazol-1-yl]pyrimidin-4-yl}cyclopropyl]-1H-benzimidazole], the Ki was 1.1 nM. For the compound `Cc1cc([C@H]2C[C@@H]2c2nc3ccccc3n2C)cc(-n2nc(C)nc2C)n1` (relative stereo) [Cpd 110, trans-2-{2-[2-(3,5-dimethyl-1H-1,2,4-triazol-1-yl)-6-methylpyridin-4-yl]cyclopropyl}-1-methyl-1H-benzimidazole], the Ki stood at 18.4 nM. As to `COc1ccc(Cc2nc(C)nn2-c2cc([C@H]3C[C@H]3c3ccc4ncccc4n3)nc(C)n2)cc1OC` (relative stereo) [Cpd 34, Cis-2-(2-(6-(5-(3,4-dimethoxybenzyl)-3-methyl-1H-1,2,4-triazol-1-yl)-2-methylpyrimidin-4-yl)cyclopropyl)-1,5-naphthyridine], the Ki was found to be 0.068 nM. `Cc1nc(C)n(-c2cc([C@H]3C[C@@H]3c3nc4ccccc4n3C)nc(N3CCNCC3)n2)n1` (relative stereo) [Cpd 126, trans-2-{2-[6-(3,5-dimethyl-1H-1,2,4-triazol-1-yl)-2-piperazin-1-ylpyrimidin-4-yl]cyclopropyl}-1-methyl-1H-benzimidazole]: the Ki is 2 nM. As to `Cc1nc([C@@H]2C[C@H]2c2nc3ccccc3n2C)cc(-n2nc(C)nc2C(C)(C)C)n1` [Cpd 100, 2-{(1R,2R)-2-[6-(5-tert-butyl-3-methyl-1H-1,2,4-triazol-1-yl)-2-methylpyrimidin-4-yl]cyclopropyl}-1-methyl-1H-benzimidazole], the inhibition constant (Ki) is 13.8 nM. Consider `Cc1nc([C@H]2C[C@@H]2c2nc3ccccc3n2CCF)cc(-n2nc(C)nc2C)n1` [Cpd 102, 2-{(1S,2S)-2-[6-(3,5-dimethyl-1H-1,2,4-triazol-1-yl)-2-methylpyrimidin-4-yl]cyclopropyl}-1-(2-fluoroethyl)-1H-benzimidazole], for which the Ki is > 75 nM. As for `Cc1nc(C2CC2c2nc3ccccc3n2-c2ccccc2)cc(-n2nc(C)nc2C)n1` (stereo not shown) [Cpd 51, 2-(2-(6-(3,5-dimethyl-1H-1,2,4-triazol-1-yl)-2-methylpyrimidin-4-yl)cyclopropyl)-1-phenyl-1H-benzo[d]imidazole], the Ki is 38.8 nM. In the case of `Cc1nc([C@@H]2C[C@H]2c2cc3n(n2)CCCC3)cc(-n2nc(C)nc2C)n1` [Cpd 107, 2-{(1R,2R)-2-[6-(3,5-dimethyl-1H-1,2,4-triazol-1-yl)-2-methylpyrimidin-4-yl]cyclopropyl}-4,5,6,7-tetrahydropyrazolo[1,5-a]pyridine], the inhibitory constant (Ki) was found to be 60.7 nM.

Consider `CCc1nc(C)nn1-c1cc([C@H]2C[C@@H]2c2nc3ccccc3n2C)nc(C)n1` (stereo in doubt) [Cpd 83, 2-{2-[6-(5-ethyl-3-methyl-1H-1,2,4-triazol-1-yl)-2-methylpyrimidin-4-yl]cyclopropyl}-1-methyl-1H-benzimidazole], for which the inhibitory constant (Ki) turned out to be 0.96 nM.

On to `Cc1nc(C2CC2c2nc3cccc(C)c3[nH]2)cc(-n2nc(C)nc2C)n1` (stereo not shown) [Cpd 55, 2-(2-(6-(3,5-dimethyl-1H-1,2,4-triazol-1-yl)-2-methylpyrimidin-4-yl)cyclopropyl)-7-methyl-1H-benzo[d]imidazole], for which the inhibition constant Ki came out at 16.8 nM.

Consider `Cc1nc(C)n(-c2cc([C@@H]3C[C@H]3c3nc4ccccc4n3C)nc(N3CCC[C@H]3C)n2)n1` [Cpd 133, 2-((1R,2R)-2-(6-(3,5-dimethyl-1H-1,2,4-triazol-1-yl)-2-((R)-2-methylpyrrolidin-1-yl)pyrimidin-4-yl)cyclopropyl)-1-methyl-1H-benzo[d]imidazole], for which the Ki was determined as 0.37 nM. With `Cc1nc(C2CC2c2nc3cc(F)c(F)cc3[nH]2)cc(-n2nc(C)nc2C)n1` (stereo not shown) [Cpd 54, 2-(2-(6-(3,5-dimethyl-1H-1,2,4-triazol-1-yl)-2-methylpyrimidin-4-yl)cyclopropyl)-5,6-difluoro-1H-benzo[d]imidazole], the Ki was found to be 25.1 nM. Turning to `CCOc1nc([C@@H]2C[C@H]2c2nc3ccccc3n2C)cc(-n2nc(C)nc2C)n1` [Cpd 63, 2-{(1R,2R)-2-[6-(3,5-dimethyl-1H-1,2,4-triazol-1-yl)-2-ethoxypyrimidin-4-yl]cyclopropyl}-1-methyl-1H-benzimidazole], the Ki came out at 0.54 nM. For `COc1ccc(Cc2nc(C)nn2-c2cc(/C=C/c3ccc4ccccc4n3)nc(C)n2)cc1OC` [Cpd 18, (E)-2-(2-(6-(5-(3,4-dimethoxybenzyl)-3-methyl-1H-1,2,4-triazol-1-yl)-2-methylpyrimidin-4-yl)vinyl)quinoline], the inhibition constant (Ki) turned out to be 0.002 nM. For `Cc1nc(C2CC2c2nnc(C)s2)cc(-n2nc(C)nc2C)n1` (stereo not shown) [Cpd 40, 2-(2-(6-(3,5-dimethyl-1H-1,2,4-triazol-1-yl)-2-methylpyrimidin-4-yl)cyclopropyl)-5-methyl-1,3,4-thiadiazole], the Ki came to 124 nM. `Cc1nc(C2CC2c2nnc(C)o2)cc(-n2nc(C)nc2C)n1` (stereo not shown) [Cpd 39, 3,5-dimethyl-1-(2-methyl-6-(2-(5-methyl-1,3,4-oxadiazol-2-yl)cyclopropyl)pyrimidin-4-yl)-1H-1,2,4-triazol-4-ium]: the Ki is 918 nM. As to `Cc1nc(C)n(-c2cc([C@@H]3C[C@H]3c3nc4ccccc4n3C)nc(OCC3(C)CC3)n2)n1` [Cpd 137, 2-((1R,2R)-2-(6-(3,5-dimethyl-1H-1,2,4-triazol-1-yl)-2-((1-methylcyclopropyl)methoxy)pyrimidin-4-yl)cyclopropyl)-1-methyl-1H-benzo[d]imidazole], the Ki was 0.84 nM. `Cc1nc([C@@H]2C[C@H]2c2nc3ccccc3n2C)cc(-n2nc(C)nc2C(C)(C)O)n1` [Cpd 98, 2-(3-methyl-1-{2-methyl-6-[(1R,2R)-2-(1-methyl-1H-benzimidazol-2-yl)cyclopropyl]pyrimidin-4-yl}-1H-1,2,4-triazol-5-yl)propan-2-ol]: the Ki was 4.2 nM.
